We go through 7 compounds from ChEMBL document CHEMBL5344478, “Cytochrome bd oxidase: an emerging anti-tubercular drug target” (RSC Med Chem, 2024).

Data set [1] deals with Mycobacterium tuberculosis. As to the kind of experiment: Antibacterial activity against Mycobacterium tuberculosis clinical isolate N0145 assessed as reduction in ATP level. The format is functional, organism-based.
The test system of data set [2] is Mycobacterium tuberculosis. Kind of data set: Antitubercular activity against Mycobacterium tuberculosis H37Rv assessed as inhibition of bacterial growth. The format is functional.
Data set [3] relates to Mycobacterium tuberculosis. Kind of data set: Inhibition of wild type Mycobacterium tuberculosis mc2 6020 cytochrome bd oxidase assessed as inhibition of oxygen consumption rate at 10 to 25 uM measured after 5 days by Methylene blue dye based assay. As to conditions: dose 10-25 µM, time 5.0 day.
In data set [4] the test system is Mycobacterium tuberculosis. As to the kind of experiment: Antibacterial activity against Mycobacterium tuberculosis H37Rv cytochrome bd oxidase assessed as reduction in total cellular ATP level. The format is functional, organism-based.
A short description of data set [5]: Half life in mouse. To be noted: in vivo. The format is ADME, organism-based.
Data set [6] is described as follows: Oral bioavailability in mouse. As to conditions: in vivo. The class given is ADME, organism-based.
Data set [7] concerns Mycobacterium tuberculosis. Kind of data set: Antitubercular activity against XDR Mycobacterium tuberculosis assessed as bacterial growth inhibition. The class given is functional.
Data set [8] relates to Mycobacterium tuberculosis. Kind of data set: Antibacterial activity against Mycobacterium tuberculosis clinical isolate N0145 assessed as reduction in bacterial growth. The format is functional, organism-based.
Data set [9] concerns Mycobacterium tuberculosis. Kind of data set: Antibacterial activity against Mycobacterium tuberculosis H37Rv assessed as reduction in bacterial growth. The format is functional, organism-based.
Data set [10] concerns Mycobacterium tuberculosis. As to the kind of experiment: Antibacterial activity against Mycobacterium tuberculosis H37Rv assessed as inhibition of bacterial growth. The class given is functional.
The subject of data set [11] is Mycobacterium tuberculosis. Kind of data set: Antibacterial activity against Mycobacterium tuberculosis H37Rv mc2 6206 assessed as inhibition of bacterial growth by resazurin dye based assay. The class given is functional. In general terms: Resazurin is reduced to fluorescent resorufin, in cell work by metabolically active cells.
The test system of data set [12] is Mycobacterium tuberculosis. Kind of data set: Antibacterial activity against Mycobacterium tuberculosis H37Rv assessed as reduction in bacterial growth incubated for 7 days by broth dilution method. The format is functional. To be noted: 168 h, time 7 day.
In data set [13] the test system is Mycobacterium tuberculosis. As to the kind of experiment: Antimycobacterial activity against Mycobacterium tuberculosis Rv0678. The format is functional.

pIC50: −log10 of the molar value. Converted amounts (≈) assume the structure as drawn.

For orientation: pIC50 means the negative decadic logarithm of the IC50, by convention in mol/L. What is called MIC is the smallest concentration in the dilution series that meets the test's criterion for growth inhibition. The term inhibition denotes the drop in the measured response relative to a control, in per cent. Take `CCc1nc2ccc(Cl)cn2c1C(=O)NCc1ccc(N2CCC(c3ccc(OC(F)(F)F)cc3)CC2)cc1` [TELACEBEC]: the pIC50 in [1] is 7.00. The MIC in data set [2] came to 0.0015 µM. The inhibition in data set [3] amounted to 60%.
The term half-life denotes how long it takes for the measured level to halve. Read a low half-life as fast loss. The term bioavailability denotes the share of a dose that reaches the circulation, judged against a reference dose that is usually intravenous. Read a low bioavailability as poor availability. Take `FC(F)(F)c1ccc(Oc2ccc(Nc3ncnc4ccccc34)cc2)cc1`: the pIC50 in data set [4] was 5.55. The half-life in data set [5] is 64 h. The bioavailability in [6] was found to be 58%. The MIC in data set [7] is at most 1 µM.
For the compound `CC(C)(C)c1ccc(CCNc2ncnc3ccsc23)cc1`, the figures for the pIC50 in data set [8] and in data set [9] were 5.07 and 5.24, respectively.
Regarding `CC(C)=CCC/C(C)=C/CC/C(C)=C/Cc1c(C)[nH]c2ccccc2c1=O` [AURACHIN D], the minimal inhibitory concentration (MIC) in data set [10] and in [2] was over 100 µg/mL each time. In addition, the inhibition in data set [3] came to 60%.
`Fc1ccc2c(NCCc3ccc(OC(F)(F)F)cc3)ncnc2c1`: the pIC50 was 6.70 in [8] and 5.12 in [9].
Turning to `NC(=O)NC(=O)c1nc(-c2cc3ccccc3o2)c(N)nc1N`, the MIC in [11] amounted to 9 µM (≈ 2.81 µg/mL); in data set [12] it was 4 µM (≈ 1.25 µg/mL); in data set [13], 12 µM (≈ 3.75 µg/mL).
Turning to `CC(C)(C)c1ccc(CCNc2ncnc3ccccc23)cc1`, the pIC50 in data set [8] was 7.00; in data set [9], 5.24.
